# Molecular target: T1, Kir6.2 channel (Mus musculus, UniProt Q61743)
# T1 construct: expressed in transfected cells; host or cells: Neuro2A (N2A) cells, transient transfection with pcDNA3.1-Kir6.2 (gift of Dr. Toru Ishizuka, Tohoku University)
# T1 sequence (Q61743 1-390): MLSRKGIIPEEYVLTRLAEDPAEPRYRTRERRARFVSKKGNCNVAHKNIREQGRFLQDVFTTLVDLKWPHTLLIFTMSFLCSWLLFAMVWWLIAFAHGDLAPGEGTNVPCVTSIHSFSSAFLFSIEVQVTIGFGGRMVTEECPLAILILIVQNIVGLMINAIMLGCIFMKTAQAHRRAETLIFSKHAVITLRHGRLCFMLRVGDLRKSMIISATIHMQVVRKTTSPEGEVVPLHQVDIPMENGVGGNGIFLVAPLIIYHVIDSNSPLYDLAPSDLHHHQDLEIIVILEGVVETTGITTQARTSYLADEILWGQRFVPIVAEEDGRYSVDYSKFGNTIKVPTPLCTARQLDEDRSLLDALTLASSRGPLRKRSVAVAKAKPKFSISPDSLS
# Experiment: CaMKII activation in N2A cells overexpressing Kir6.2 channel (immunoblotting, anti-phosphorylated CaMKII antibody)
# Type: cell-based
# Settings: 10 nM, one hour, Kir6.2 channel overexpressing N2A cells; control without compound = 100%
# Description: A plasmid vector having cDNA of Kir6.2 channel inserted therein: pcDNA3.1-Kir6.2, was obtained from Dr. Toru Ishizuka (Graduate School of Life Sciences, Tohoku University). The plasmid vector, pcDNA3.1-Kir6.2, was conditioned in accordance with the manual attached to GenElute HP Plasmid Maxiprep Kit (manufactured by Sigma-Aldrich). A culture solution (composition: DMEM culture solution 450 mL containing 50 ml of bovine serum and 100 units of penicillin/streptomycin) of Neuro2A cells (N2A cells, the National Instituted of Biomedical Innovation) cultured in DMEM culture solution (Gibco) was exchanged with Opti-Mem (Gibco)(containing Lipofectamine R2000 (1 μg/1 ml)) containing pcDNA3.1-Kir6.2 (1 μg/μl) conditioned above, and cultured for 5 hours to obtain N2A cells overexpressing Kir6.2 channel. Exchange with the DMEM culture solution was again performed and culture was carried out for two days. Thereafter, memantine (manufactured by Sigma-Aldrich) and the compound of the present invention (n=4 per group) were added in the culture solutions (DMEM, Gibco) so as to obtain a concentration of 10 nM based on the culture solution, and the culture solutions were allowed to stand still for one hour. Thereafter, Kir6.2 channel overexpressing N2A cells were collected and an SDS sample buffer was added to the N2A cells to prepare a suspension. The suspension was subjected to immunoblotting by use of an anti-phosphorylated CaMKII antibody (Fukunaga K et al., J. Biol. Chem. 1992, 267, 22527-22533) as a primary antibody and an anti-rabbit IgG antibody (manufactured by SouthernBiotech) as a secondary antibody (other conditions except the aforementioned antibodies were the same as those employed in ordinary immunoblotting), to investigate activation of CaMKII. As a result, in TP-009, TP-010, TP-011, TP-012, TP-014, TP-015, TP-048, TP-049, TP-050, TP-051, TP-052, TP-053, bands showing a reaction with the antibody against phosphorylated CaMKII were obtained. It was confirmed that activation of CaMKII is enhanced. In FIG. 1, the result of the case (control: c) where a test compound was not added is regarded as 100%. CaMKII activation of the cases containing memantine, TP-009, TP-010, TP-011, TP-012, TP-014, TP-015, TP-048, TP-049, TP-050, TP-051, TP-052, TP-053 (corresponding to M, 9, 10, 11, […], 15, 48, 49, 50, 51, 52 and 53, respectively) were shown in FIG. 1.
row,SMILES,activation of CaMKII (phosphorylated CaMKII bands)
1,"COCCO[C@@]12C[C@H]3C[C@@H](C1)[C@H]([C@@H](NC(=O)C(F)(F)F)c1ccccc1)[C@](OC(=O)C(F)(F)F)(C3)C2 [TP-050, (1S,2R,3S,5S,7R)-5-(2-methoxyethoxy)-2-((R)-phenyl(2,2,2-trifluoroacetamido)methyl)adamantan-1-yl 2,2,2-trifluoroacetate]",enhanced
2,"CO[C@@]12C[C@H]3C[C@@H](C1)[C@H]([C@@H](NC(=O)C(F)(F)F)c1ccccc1)[C@](OC(=O)C(F)(F)F)(C3)C2 [TP-053, (1S,2R,3S,5S,7R)-5-methoxy-2-((R)-phenyl(2,2,2-trifluoroacetamido)methyl)adamantan-1-yl 2,2,2-trifluoroacetate]",enhanced
3,"O=C(N[C@@H](c1ccccc1)[C@H]1[C@@H]2C[C@H]3C[C@@H](C2)C[C@]1(O)C3)C(F)(F)F [TP-052, 2,2,2-trifluoro-N—((R)—((S,2R,3S,5R,7S)-1-hydroxyadamantan-2-yl)(phenyl)methyl) acetamide]",enhanced
4,"O=C(N[C@@H](c1ccccc1)[C@H]1[C@@H]2C[C@H]3C[C@@H](C2)C[C@]1(OC(=O)C(F)(F)F)C3)C(F)(F)F [TP-049, (1S,2R,3S,5R,7S)-2-((R)-phenyl(2,2,2-trifluoroacetamido)methyl)adamantan-1-yl 2,2,2-trifluoroacetate]",enhanced
5,"CC(=O)O[C@@H](c1ccccc1)[C@@H]1[C@@H]2C[C@H]3C[C@@](N=[N+]=[N-])(C2)C[C@]1(O)C3 [TP-009, (R)-((1R,2S,3R,5R,7S)-5-azido-1-hydroxyadamantan-2-yl)(phenyl)methyl acetate]",enhanced

# Other lines, results leading:
row,activation of CaMKII (phosphorylated CaMKII bands),SMILES
1,enhanced,"CCOC(=O)[C@@H](NC(C)=O)[C@@H]1[C@@H]2C[C@H]3C[C@@](Cl)(C2)C[C@]1(O)C3 [TP-010, ethyl (S)-2-acetamido-2-((1R,2S,3R,5R,7R)-5-chloro-1-hydroxyadamantan-2-yl)acetate]"
2,enhanced,"COC(=O)[C@@H](NC(=O)C(F)(F)F)[C@@H]1[C@@H]2C[C@H]3C[C@@](Cl)(C2)C[C@]1(OC(=O)C(F)(F)F)C3 [TP-012, (1R,2S,3R,5R,7R)-5-chloro-2-((S)-2-methoxy-2-oxo-1-(2,2,2-trifluoroacetamido)ethyl)adamantan-1-yl 2,2,2-trifluoroacetate]"
3,enhanced,"CCOC(=O)[C@H](NC(C)=O)[C@@H]1[C@@H]2C[C@H]3C[C@@](Cl)(C2)C[C@]1(O)C3 [TP-011, ethyl (R)-2-acetamido-2-((1R,2S,3R,5R,7R)-5-chloro-1-hydroxyadamantan-2-yl)acetate]"
4,enhanced,"O=C(N[C@@H](c1cccnc1)[C@H]1[C@H]2C[C@@H]3C[C@](Cl)(C2)C[C@@]1(O)C3)C(F)(F)F [TP-051, N—((R)-((1S,2R,3S,5S,7S)-5-chloro-1-hydroxyadamantan-2-yl)(pyridin-3-yl)methyl)-2,2,2-trifluoroacetamide]"
5,enhanced,"O=C(N[C@@H](c1ccccc1)[C@H]1[C@H]2C[C@@H]3C[C@](Cl)(C2)C[C@@]1(O)C3)C(F)(F)F [TP-048, N—((R)-((1S,2R,3S,5S,7S)-5-chloro-1-hydroxyadamantan-2-yl)(phenyl)methyl)-2,2,2-trifluoroacetamide]"
6,enhanced,"N[C@H](C(=O)O)[C@@H]1[C@@H]2C[C@H]3C[C@@](O)(C2)C[C@]1(O)C3 [TP-015, (S)-2-amino-2-((1R,2S,3R,5R,7S)-1,5-dihydroxyadamantan-2-yl)acetic acid]"

# From US10487045B2, “Adamantane derivative and use thereof” (TOHOKU UNIVERSITY, priority 2016, dated 2019)
